# Experimental data reported in patent US20040133938A1, “Use of lipoic acid in plant culture media” (priority 2002, published 2004).
# Tested on: potato stem explants, cultivar Ranger Russet
# Experiment: Potato Agrobacterium transformation with glyphosate selection
# Type: cell-based
# Settings: for #rooted / shoots: 400 explants; for % TE (transformation efficiency) / % escape: potato
# Method: This Example describes the use of lipoic acid in an Agrobacterium-based potato transformation protocol. Five days prior to inoculation, Agrobacterium containing the transformation vector of interest were streaked on a fresh LBssck plate (see media descriptions in Example 1) from the frozen glycerol stock, grown at about 28° C. for 3-4 days and stored in the refrigerator. About 20-22 hours before inoculation, 50 mL of liquid LBssck media (see media descriptions in Example 1) were dispensed into a 250-mL sterile flask. Using a sterile bacteriological loop, one loopful of bacteria from the LBssck plate was inoculated and agitated in the liquid LBssck. The 250-mL flasks were shaken at 25° C. overnight at medium to high speed. On inoculation day, 45 mL of MSO (4.4 g/L MS salts, 2 mL/L, Gamborg's B5 salts, 30 g/L sucrose) were dispensed into a 250 mL sterile flask. Using a sterile 5 mL pipette, 5 mL of the suspension was removed and dispensed into the flask containing the 45 mL of MSO and then agitated. The desired O.D. used for Agrobacterium transformation in potato was O.D.660=0.1.
# The stock plant material to be used was collected from the growth chamber (16-hour light, 20° C.). The meristem was excised from the stock plants, and the cut end was placed in fresh PM (see media descriptions below) media, with ten meristems per plantcon. The leaves were removed from the potato stems by either cutting with a scalpel or pinching them off with forceps. After removing all the leaves in the plantcon, the stems were excised near the base and placed in an empty, sterile plantcon containing MSO. During this process, the plantcon(s) containing stems were kept closed except when adding more stems.
# On the day of the inoculation, the stems were cut into 7 mm sections using a sterile scalpel and forceps. A 1/10 Agrobacterium solution was prepared by pipetting 4 mL of the Agrobacterium culture into 36 mL of MSO. The 1/10 agro solution was poured into the respective plates and swirled gently. A small amount of MSO was dispensed into the regeneration tissue and swirled. It was incubated for 15 min.
# After 15 minutes, the Agrobacterium solution was removed with a vacuum aspirator. Using a sterile scoopula, the explants were scooped and spread onto the coculture plates with a piece of sterile 8.5 cm Whatman filter paper placed in the middle, about 100 explants per plate. The plates were placed in a bag and stored in a warm room ( 16/8 hour light, 19° C.) for two days.
# After the two-day co-culture period, explants were placed on the appropriate selection media corresponding to the selectable marker provided in the transformation vector.
# The explants were placed on the Z1 nonselection media at 20 explants per plate. The plates were placed in a bag and stored in a warm room (16-hour light, 19° C.). The glyphosate constructs were transferred to selection medium in 3 days.
# In three days, the explants were transferred to Z1 glyphosate selection media at 20 explants per plate. The plates are bagged and placed in the warm room for one week.
# After one week, the explants that were on Z1 glyphosate media were transferred to Z2 glyphosate media at 20 explants per plate. The plates were bagged and placed back in the warm room for 4 weeks. They remained on-this selection media for four weeks.
# After two weeks, the experiment was checked for any shoots at this point. Shoots that were originating directly from the callusing end of the explant were excised. The shoots were placed on rooting media containing either kanamycin or glyphosate depending upon the selection used in the experiment and placed in the growth chamber. These were checked for rooting in two weeks. Any that were rooting were cut into tubes. This process was repeated after 2 more weeks. Any non-rooting plants were discarded after 4 weeks.
# The lipoic acid study was conducted using the glyphosate transformation protocol as outlined above. […]
# [1] = 8 μM lipoic acid, listed as Lipoic acid
# [2] = 9 μM lipoic acid, listed as Lipoic acid
smiles,measurement,setting,value
"O=C(O)CCCCC1CCSS1 (stereo not shown) [lipoic acid, 1,2-dithiolane-3-pentanoic acid]",#rooted,6 μM lipoic acid,18
same,shoots,6 μM lipoic acid,27
same,% TE (transformation efficiency),6 μM lipoic acid,4.5%
same,% escape,6 μM lipoic acid,33.0%
same,#rooted,7 μM lipoic acid,16
same,shoots,7 μM lipoic acid,25
same,% TE (transformation efficiency),7 μM lipoic acid,4.0%
same,% escape,7 μM lipoic acid,36.0%
same,#rooted,8 μM lipoic acid,75
same,shoots,8 μM lipoic acid,89
same,% TE (transformation efficiency),8 μM lipoic acid,19.0%
same,% escape,8 μM lipoic acid,16.0%
same,% TE (transformation efficiency),[1],19%
same,% escape,[1],16%
same,#rooted,9 μM lipoic acid,70
same,shoots,9 μM lipoic acid,89
same,% TE (transformation efficiency),9 μM lipoic acid,18.0%
same,% escape,9 μM lipoic acid,21.0%
same,% TE (transformation efficiency),[2],18%
same,% escape,[2],21%
same,increase in transformation efficiency,lipoic acid at 8 μM and 9 μM vs control,sixfold increase
same,effect on transformation efficiency and escapes,lipoic acid at 6 and 7 μM,little effect
